# Measurements as given in patent US4185016A, “Pyrrolo benzodiazepine compounds” (priority 1977, dated 1980).
# Read-outs that look alike come from different tables or passages of the source.
# Columns and labels:
# in vivo = experiment: in vivo; design: species or system DD strain male mice; details: mouse, ip
# Description: LD50 values of the compounds of this invention were determined by the use of DD strain male mice having body weight of 18 to 20 g, 5 heads per one group. Each test compound was dissolved into physiological solution of sodium chloride containing 1% dimethyl sulfoxide and administered intraperitoneally to the animals. The dose levels were 20 mg/kg, 16.7 mg/kg, 13.9 mg/kg, 11.6 mg/kg and 9.6 mg/kg. One week after the administration, LD50 was determined.
# (§1) The compounds used in the antitumor activity test and the acute toxicity test were the aforementioned novel compounds. The results of tests concerning the compounds of general formula (I) are listed in Table 1, while those concerning the compounds of general formula (II) are listed in Table 2.
# [1] = U.S. Pat. No. 3,361,742 and J. Am. Chem. Soc., 87, 5791-5793 (1965); cited from earlier work
# [2] = U.S. Pat. No. 3,361,742 and J. Am. Chem. Soc., 87, 5791-5793 (1965); cited from earlier work; remark: listed apart in the source
# Leukaemia P388 = format: in vivo, CDF1 male mice; details: ip
# Source text: CDF1 male mice having body weight of 18 to 20 g, 10 heads per one group, were inoculated with 2×10^5 cells/mouse Leukaemia P388. Twenty four hours after the inoculation, an appointed dose of test compound was intraperitoneally administered to the animals of administration group, after which the administration was repeated for successive 6 days. The survival day numbers of the animals were counted.
# Survival time of the animals was expressed by average survival day number.
# as §1
# [3] = intraperitoneal, one week after administration, read-out: Acute toxicity LD50
SMILES,LD50 at 168 h (in vivo; [3]),other results
"COc1ccc2c(c1O)NC(O)C1CCCN1C2=O (centres unmarked) [Example 16, 2,3,5,10,11,11a-hexahydro-9,11-dihydroxy-8-methoxy-1H-pyrrolo[2,1-C][1,4]benzodiazepin-5-one]",12.6 mg/kg,–
"CCOC1Nc2c(ccc(C)c2O)C(=O)N2CCCC12 (centres unmarked) [Example 7, 2,3,5,10,11,11a-hexahydro-11-ethoxy-9-hydroxy-8-methyl-1H-pyrrolo[2,1-C][1,4]benzodiazepin-5-one]",13.3 mg/kg,–
"O=C1c2cccc(O)c2NC(O)C2CCCN12 (centres unmarked) [Example 14, 2,3,5,10,11,11a-hexahydro-9,11-dihydroxy-1H-pyrrolo[2,1-C][1,4]benzodiazepin-5-one]",12.5 mg/kg,–
"Cc1ccc2c(c1O)NC(O)C1CCCN1C2=O (centres unmarked) [Example 12, 2,3,5,10,11,11a-hexahydro-9,11-dihydroxy-8-methyl-1H-pyrrolo[2,1-C][1,4]benzodiazepin-5-one]",12.9 mg/kg,–
"Cc1ccc2c(c1O)NC(O)C1CC(/C=C/C(N)=O)=CN1C2=O (centres unmarked) [5,10,11,11a-tetrahydro-9,11-dihydroxy-8-methyl-5-oxo-1H-pyrrolo[2,1-C][1,4]-benzodiazepin-2-acrylamide]",–,antitumor activity [1]: antitumor; antibacterial activity [2]: antibacterial
"CCOC1Nc2c(ccc(C)c2OC(C)=O)C(=O)N2CCCC12 (centres unmarked) [Example 18, 2,3,5,10,11,11a-hexahydro-9-acetoxy-11-ethoxy-8-methyl-1H-pyrrolo[2,1-C][1,4]benzodiazepin-5-one]",12.8 mg/kg,–
"Cc1ccc2c(c1O)N=CC1CCCN1C2=O (centres unmarked) [Example 8, 2,3,5,11a-tetrahydro-9-hydroxy-8-methyl-1H-pyrrolo[2,1-C][1,4]benzodiazepin-5-one]",13.6 mg/kg,"Antitumor activity, Life-prolongation rate (Leukaemia P388; 2.5 mg/kg): 126.7%; Antitumor activity, Life-prolongation rate (Leukaemia P388; 5 mg/kg): 148.7%"
"CC(=O)Oc1cccc2c1N=CC1CCCN1C2=O (centres unmarked) [Example 31, 2,3,5,11a-tetrahydro-9-acetoxy-1H-pyrrolo[2,1-C][1,4]benzodiazepin-5-one]",13.4 mg/kg,–
"COc1ccc2c(c1OC(C)=O)NC(O)C1CCCN1C2=O (centres unmarked) [Example 27, 2,3,5,10,11,11a-hexahydro-9-acetoxy-11-hydroxy-8-methoxy-1H-pyrrolo[2,1-C][1,4]benzodiazepin-5-one]",12.4 mg/kg,–
"COc1ccc2c(c1O)NC(OC)C1CCCN1C2=O (centres unmarked) [15, 6]",12.7 mg/kg,–
"COC1Nc2c(OC(C)=O)cccc2C(=O)N2CCCC12 (centres unmarked) [24, 33]",12.4 mg/kg,"Antitumor activity, Life-prolongation rate (Leukaemia P388; 2.5 mg/kg): 121.6%; Antitumor activity, Life-prolongation rate (Leukaemia P388; 5 mg/kg): 143.8%"
"COC1Nc2c(O)cccc2C(=O)N2CCCC12 (centres unmarked) [5, 13]",12.8 mg/kg,"Antitumor activity, Life-prolongation rate (Leukaemia P388; 2.5 mg/kg): 127.0%; Antitumor activity, Life-prolongation rate (Leukaemia P388; 5 mg/kg): 148.0%"
"COC1Nc2c(ccc(C)c2OC(C)=O)C(=O)N2CCCC12 (centres unmarked) [17, 21]",13.9 mg/kg,"Antitumor activity, Life-prolongation rate (Leukaemia P388; 2.5 mg/kg): 125.0%; Antitumor activity, Life-prolongation rate (Leukaemia P388; 5 mg/kg): 149.0%"
"CCOC1Nc2c(ccc(OC)c2O)C(=O)N2CCCC12 (centres unmarked) [Example 29, 2,3,5,10,11,11a-hexahydro-11-ethoxy-9-hydroxy-8-methoxy-1H-pyrrolo[2,1-C][1,4]benzodiazepin-5-one]",12.2 mg/kg,"Antitumor activity, Life-prolongation rate (Leukaemia P388; 2.5 mg/kg): 123.3%; Antitumor activity, Life-prolongation rate (Leukaemia P388; 5 mg/kg): 141.4%"
"CC(=O)Oc1cccc2c1NC(O)C1CCCN1C2=O (centres unmarked) [Example 23, 2,3,5,10,11,11a-hexahydro-9-acetoxy-11-hydroxy-1H-pyrrolo[2,1-C][1,4]-benzodiazepin-5-one]",12.7 mg/kg,–
"COC1Nc2c(ccc(C)c2O)C(=O)N2CCCC12 (centres unmarked) [4, 11]",–,LD50 at 168 h (in vivo): 13.8 mg/kg
"CCOC1Nc2c(OC(C)=O)cccc2C(=O)N2CCCC12 (centres unmarked) [Example 26, 2,3,5,10,11,11a-hexahydro-9-acetoxy-11-ethoxy-1H-pyrrolo[2,1-C][1,4]benzodiazepin-5-one]",13.2 mg/kg,–
"O=C1c2cccc(O)c2N=CC2CCCN12 (centres unmarked) [Example 9, 2,3,5,11a-tetrahydro-9-hydroxy-1H-pyrrolo[2,1-C][1,4]benzodiazepin-5-one]",13.1 mg/kg,–
"CC(=O)Oc1c(C)ccc2c1N=CC1CCCN1C2=O (centres unmarked) [20, 19]",12.8 mg/kg,–
"CCOC1Nc2c(O)cccc2C(=O)N2CCCC12 (centres unmarked) [Example 25, 2,3,5,10,11,11a-hexahydro-11-ethoxy-9-hydroxy-1H-pyrrolo[2,1-C][1,4]benzodiazepin-5-one]",13 mg/kg,–
"COc1ccc2c(c1OC(C)=O)NC(OC)C1CCCN1C2=O (centres unmarked) [Example 28, 2,3,5,10,11,11a-hexahydro-9-acetoxy-8,11-dimethoxy-1H-pyrrolo[2,1-C][1,4]benzodiazepin-5-one]",12.3 mg/kg,–
"COc1ccc2c(c1O)N=CC1CCCN1C2=O (centres unmarked) [Example 10, 2,3,5,11a-tetrahydro-9-hydroxy-8-methoxy-1H-pyrrolo[2,1-C][1,4]benzodiazepin-5-one]",13.3 mg/kg,"Antitumor activity, Life-prolongation rate (Leukaemia P388; 2.5 mg/kg): 126.7%; Antitumor activity, Life-prolongation rate (Leukaemia P388; 5 mg/kg): 145.6%"
"CCOC1Nc2c(ccc(OC)c2OC(C)=O)C(=O)N2CCCC12 (centres unmarked) [Example 30, 2,3,5,10,11,11a-hexahydro-9-acetoxy-11-ethoxy-8-methoxy-1H-pyrrolo[2,1-C][1,4]benzodiazepin-5-one]",12.7 mg/kg,–
"CC(=O)Oc1c(C)ccc2c1NC(O)C1CCCN1C2=O (centres unmarked) [Example 22, 2,3,5,10,11,11a-hexahydro-9-acetoxy-11-hydroxy-8-methyl-1H-pyrrolo[2,1-C][1,4]benzodiazepin-5-one]",13.5 mg/kg,–
"COc1ccc2c(c1OC(C)=O)N=CC1CCCN1C2=O (centres unmarked) [Example 32, 2,3,5,11a-tetrahydro-9-acetoxy-8-methoxy-1H-pyrrolo[2,1-C][1,4]benzodiazepin-5-one]",13.7 mg/kg,–
